According to article PMC12770330 (Scientific Reports, 2025):

Experiments:
α-glucosidase [1] = assay: in vitro kinetic analysis of α-glucosidase inhibition; type: biochemical, Saccharomyces cerevisiae
α-glucosidase [2] = assay: α-glucosidase inhibitory assay; type: biochemical, Saccharomyces cerevisiae

| mode of inhibition (α-glucosidase [1]; Km increases, Vmax unchanged) | Ki (α-glucosidase [1]; inhibitor 5.00, 10.00, 20.00 µM, substrate 4-nitrophenyl α-D-glucopyranoside) [µM] | α-glucosidase inhibitory activity (in words) (α-glucosidase [2]) | SMILES |
| --- | --- | --- | --- |
| competitive | 7.39 ± 0.088 | – | COc1ccc(NC(=S)NC2c3ccccc3CC2O)cc1 (stereo not drawn) [Compound 2h, 1-(2-hydroxy-2,3-dihydro-1 H-inden-1-yl)-3-(4-methoxyphenyl) thiourea] |
| – | – | inactive | CCNC(=S)NC1c2ccccc2CC1O (stereo not drawn) [Compound 2d, 1-ethyl-3-(2-hydroxy-2,3-dihydro-1H-inden-1-yl) thiourea] |
